The record followed here is article PMC12733166, “Enhancing Cytosolic Internalization of [^177Lu]Lu–iPSMA in Prostate Cancer Cells: The Effect of Conjugating a GRP78 Inhibitor to the Radiotherapeutic Molecule” (International Journal of Molecular Sciences, 2025).

For orientation: Kd means the constant that tells how readily two partners part at equilibrium.

The structures appear in SMILES notation. Starred links: 1 amine or outer side, 2 acyl side, 3 side chain; linkers in the order of their positions; H or OH if unused. Non-standard residues stand in square brackets, D forms with d. Residues, ends and D or L forms follow the SMILES beside them. *: point of attachment. X2 = O=C(O)CC[C@@H](NC(=O)N[C@H](CCCCNC(=O)[C@H](Cc1ccc2ccccc2c1)NC(=O)CCCN1C(=O)C[C@@H](*)C1=O)C(=O)O)C(=O)O; DOTA = O=C(O)CN1CCN(CC(=O)O)CCN(CC(=O)*)CCN(CC(=O)O)CC1; X1 = O=C(c1ccc(NN[*:1])nc1)[*:2]

Data set [1] deals with LNCaP cells (PSMA+, CS-GRP78+). The data set can be described thus: Cytosolic and nuclear internalization (subcellular fractionation) in LNCaP cells. Conditions: LNCaP cells 1 × 10^5/200 µL, 37 kBq/4 nmol, 1 h, 37 °C; for Cytosolic internalization: gamma counting of cytosolic fraction; for Nuclear internalization: gamma counting of nuclear extract. It is filed as cell-based, human. The method, then:
(§1) PC-3 (CRL-1435; ATCC, Manassas, VA, USA) and LNCaP human prostate cancer cells (CRL-1740; ATCC, USA) were cultured in Roswell Park Memorial Institute medium (RPMI; Sigma-Aldrich, USA) at 37 °C, 85% humidity, 5% CO2, and 10% fetal bovine serum.
(§2) Assays were performed to evaluate the cellular uptake and subcellular distribution of [^177Lu]Lu–iPSMA–iGRP78 and the control monomers [^177Lu]Lu–iPSMA and [^177Lu]Lu–iGRP78 in two prostate cancer cell lines: LNCaP (PSMA+, SC-GRP78+) and PC3 (PSMA^−, CS-GRP78^−). Cells (1 × 10^5/200 µL) were incubated with the radiopharmaceutical (37 kBq/4 nmol) for 1 h at 37 °C to assess the distribution between the cytoplasm and nucleus.
Following incubation, tubes were measured with a NaI(Tl) crystal scintillation gamma-counter (NML Inc., TX, USA) to determine 100% of the initial activity. The tubes were centrifuged at 250× g for 5 min, and the supernatant was withdrawn. The activity in the pellet was measured to determine the percentage of cellular uptake (surface uptake) relative to the initial activity. Next, the nuclei and cytoplasm of the cells were separated using a Nuclear Extraction Kit (Chemicon International, Inc., Temecula, CA, USA). To prepare for fractionation, the cells were first washed with 1 mL of 0.2 M acetic acid/0.5 M NaCl. The tubes were centrifuged at 250× g for 5 min, washed with phosphate-buffered saline (PBS), and then centrifuged again to ensure thorough removal of extracellular components.
(§3) After centrifugation, the cell pellet, which corresponds to the internalized activity, was quantified using a gamma counter. The radioactivity measured in the pellet was defined as 100% of the internalized activity.
The pellet was resuspended in cytoplasmic lysis buffer with dithiothreitol and a protease inhibitor cocktail to maintain protein stability during lysis. Mechanical disruption was performed by passing the suspension through a 27-gauge needle multiple times using a syringe to ensure complete cell breakdown. The resulting lysate underwent centrifugation at 8000× g for 20 min at 4 °C. The supernatant, representing the cytosolic fraction, was collected and analyzed for radioactivity via gamma counting.
The remaining pellet, containing the nuclear fraction, was resuspended in nuclear extraction buffer supplemented with dithiothreitol and a protease inhibitor cocktail. Nuclear disruption was carried out before centrifuging at 16,000× g for 5 min at 4 °C. The supernatant contained the nuclear extract, while the membrane components remained in the pellet.
(§4) Radioactivity measurements were conducted on both the nuclear extract and the membrane pellet fractions using a gamma counter. The percentage of activity within each subcellular compartment was calculated for each time point, allowing for evaluation of the distribution of [^177Lu]Lu–iPSMA–iGRP78 and control monomers [^177Lu]Lu–iPSMA and [^177Lu]Lu–iGRP78 between the cytoplasmic and nuclear compartments of prostate cancer cells over time.

The test system of data set [2] is PC3 cells (PSMA−, CS-GRP78−). The data set can be described thus: Cytosolic and nuclear internalization (subcellular fractionation) in PC3 cells. It is filed as cell-based, human. Conditions: PC3 cells 1 × 10^5/200 µL, 37 kBq/4 nmol, 1 h, 37 °C. How it is done:
as §1, §2
Following incubation, tubes were measured with a NaI(Tl) crystal scintillation gamma-counter (NML Inc., TX, USA) to determine 100% of the initial activity. The tubes were centrifuged at 250× g for 5 min, and the supernatant was withdrawn. The activity in the pellet was measured to determine the percentage of cellular uptake (surface uptake) relative to the initial activity. […]
as §3
The pellet was resuspended in cytoplasmic lysis buffer with dithiothreitol and a protease inhibitor cocktail to maintain protein stability during lysis. […] The supernatant, representing the cytosolic fraction, was collected and analyzed for radioactivity via gamma counting. […]
as §4

Data set [3] concerns LNCaP cells (PSMA+, CS-GRP78+). The data set can be described thus: Saturation binding assay on LNCaP cells. The arrangement: species or system human. Conditions: 1-100 nM radioligand, 4 °C, 2 h, non-specific binding with 1 μM PMPA, n = 3 from two independent experiments; for Kd: GraphPad Prism, read-out: Dissociation constant (Kd). How it is done:
as §1
The affinity comparison between the [^177Lu]Lu–iPSMA–iGRP78 dimer and [^177Lu]Lu–iPSMA monomer was performed in LNCaP cells. For the saturation binding analysis, cells were seeded on 96-well plate cultures ([…]) and incubated at 37 °C under a CO2 atmosphere for 24 h, then the plates were placed on ice for 30 min. Next, they were incubated at 4 °C for 2 h with increasing concentrations (from 1nM to 100 nM) of the monomer [^177Lu]^natLu-iPSMA or the dimer [^177Lu]^natLu-iPSMA-iGRP78. Finally, cells were washed with PBS followed by the addition of 1M NaOH for cell lysis. This solution was measured for radioactivity using a NaI(Tl) gamma counter (NML Inc., Littleton, CO, USA). Non-specific binding of [^177Lu]Lu–iPSMA–iGRP78 and [^177Lu]Lu–iPSMA was determined under the same experimental conditions described above but in the presence of PMPA (2-(phosphonomethyl) pentanedioic acid) at a final concentration of 1 μM. The dissociation constant (Kd) and maximum number of binding sites (Bmax) were calculated by a lineal regression analysis with data (n = 3) from two independent experiments using the GraphPad Prism software (v. 10.6.1).

A short description of data set [4]: Stability in PBS (radiochemical purity by radio-HPLC). The data set is classed as physicochemical. Particulars: 10 µL (18.5 MBq) in 1 mL PBS, 3 h, 37 °C; reverse-phase radio-HPLC; n = 3. The method, then:
The quality control assessed bacterial endotoxins, sterility, pH, and appearance, following the general methods of the Mexican Pharmacopeia. Radiochemical purity was evaluated by reversed-phase radio-high-performance liquid chromatography (radioHPLC) ( LC-40DxR, Shimadzu, Kyoto, Japan). A shim-pack GIST C18 column (Shimadzu: 4.6 mm × 25 cm, 5 μm particle size) with a linear gradient from 100% to 10% of mobile phase A (0.1% TFA aqueous solution) and from 0% to 90% of phase B (0.1% TFA in acetonitrile) in 20 min at 1 mL/min. The retention time of [^177Lu]Lu–iPSMA–iGRP78 was 17.4 ± 0.3 min, and 3.7 ± 0.2 min for ^177LuCl3. Radiochemical purities of [^177Lu]Lu–iPSMA (tR = 15.2 ± 0.2 min) and [^177Lu]Lu–iGRP78 (tR = 19.2 ± 0.4 min) were also verified to be higher than 95%.
To assess the in vitro stability of [^177Lu]Lu-iPSMA-iGRP78, 10 µL (18.5 MBq) of the radiopharmaceutical was diluted in either 1 mL of PBS or 1 mL of human serum (NIST-909c certified human serum sample; Sigma-Aldrich, St. Louis, MO, USA) (n = 3). The mixtures were incubated for 3 h at 37 °C. Then, 0.5 mL of acetonitrile was added to the human serum samples to precipitate the proteins, and the mixtures were centrifuged at 500× g for 10 min. The radiochemical purity of the human serum supernatants and PBS solution samples was analyzed by reverse-phase radio-HPLC, as described above.

The test system of the next data set is LNCaP cells. The data set can be described thus: Cytotoxicity / cell viability by flow cytometry (Muse Count & Viability kit). It is filed as cell-based, human. Conditions: LNCaP 5 × 10^4 cells/200 µL, 1.4 MBq, 5 h (15 Gy/h whole-cell dose); triplicate (n = 3) from two independent experiments, mean ± SD. The method, then: The effects of radioligands on LNCaP cell viability were evaluated using advanced flow cytometry techniques. The radioligands tested were [^177Lu]Lu–iPSMA–iGRP78, [^177Lu]Lu–iPSMA, and [^177Lu]Lu–iGRP78. This evaluation was conducted to assess their impact on the survival of prostate cancer cells. Cell viability was measured using the Count & Viability kit (Muse®). Prior to analysis, the Muse® cell analyzer (Merck Millipore, Burlington, MA, USA) was calibrated with the verification kit to ensure its accuracy. First, a fresh, untreated LNCaP cell sample was analyzed to establish reference parameters, including cell size, granularity, and natural cell viability. To accurately distinguish between live and dead cells, an aliquot of the same cell population was treated with 0.05% Triton X-100. This treatment defined the dead cell detection window in the analyzer. Next, a specific detection window was established for LNCaP cells to differentiate between viable and non-viable cells during analysis accurately. For each experimental group, a cell suspension containing 5 × 10^4 cells in 200 µL was prepared. The cells were then treated as follows: 1.4 MBq of (a) [^177Lu]Lu–iPSMA–iGRP78, (b) [^177Lu]Lu–iPSMA, (c) [^177Lu]Lu–iGRP78, and (d) untreated. After five hours of treatment (15 Gy/h at whole-cell dose), the cells were mixed with 450 µL of viability reagent and incubated for 5 min at room temperature in the dark. All measurements were performed in triplicate (n = 3) from two independent experiments to ensure reliability and reproducibility. To determine the radiation absorbed dose rate to the whole cell (15 Gy/h), the total number of nuclear transformations (N) was calculated. This value was normalized to the administered activity unit (MBq·s/MBq) by integrating the activity (A(t)) from time zero to five hours. Next, the absorbed dose was calculated by multiplying N by the dose factor (DF: from cell to cell) (Gy/Bq·s), as determined by MIRDcell software, considering the crossfire absorbed dose (version 2.1).

As for `O=C(O)CC[C@@H](NC(=O)N[C@H](CCCCNC(=O)[C@H](Cc1ccc2ccccc2c1)NC(=O)c1ccc(NNC(=O)CN2CCN(CC(=O)O)CCN(CC(=O)O)CCN(CC(=O)O)CC2)nc1)C(=O)O)C(=O)O` [[^177Lu]Lu–iPSMA, metal not drawn], in data set [1], the Cytosolic internalization turned out to be 6.45 ± 0.60% and the Nuclear internalization result is reported as “no uptake in the cell nucleus”. In addition, the “Uptake in cellular cytosol and nucleus” value in data set [2] is “low uptake”. Further, in data set [3], the “Maximum number of binding sites (Bmax)” value was found to be 0.032 nM and the equilibrium dissociation constant (Kd) amounted to 2.25 nM. Also, the “Radiochemical purity, unchanged after incubation in PBS” value (“Radiochemical purity, unchanged” below) in data set [4] is listed as “exceeding 97%”. This molecule came in with a Dead cells with LNCaP cells of 38.63 ± 6.13%.
In data set [1], `CC[C@@H](C)[C@@H](NC(=O)[C@@H](Cc1c[nH]c2ccccc12)NC(=O)[C@H]1CCCN1C(=O)[C@@H](Cc1ccccc1)NC(=O)[C@H](NC(=O)[C@@H](Cc1c[nH]c2ccccc12)NC(=O)[C@@H](CS[C@@H]1CC(=O)N(CCCC(=O)N[C@@H](Cc2ccc3ccccc3c2)C(=O)NCCCC[C@@H](NC(=O)N[C@H](CCC(=O)O)C(=O)O)C(=O)O)C1=O)NC(=O)c1ccc(NNC(=O)CN2CCN(CC(=O)O)CCN(CC(=O)O)CCN(CC(=O)O)CC2)nc1)[C@H](C)CC)C(=O)N[C@H](CCC(N)=O)C(=O)N[C@H](CC(C)C)C(=O)O` [[^177Lu]Lu–iPSMA–iGRP78, metal not drawn] ({DOTA}-[X1][dC](X2)[dW][dI][dF][dP][dW][dI][dQ][dL]-OH) returned a Cytosolic internalization of 10.44 ± 2.43% and a Nuclear internalization of 4.81 ± 0.94%. The “Uptake in cellular cytosol and nucleus” value in data set [2] was “low uptake”. Further, in data set [3], the “Maximum number of binding sites (Bmax)” value was 0.048 nM and the Kd is 1.88 nM. The “Radiochemical purity, unchanged” value in data set [4] is listed as “exceeding 97%”. In addition, the Dead cells in the data set on LNCaP cells stood at 69.93 ± 4.85%.
`CC[C@@H](C)[C@@H](NC(=O)[C@@H](Cc1c[nH]c2ccccc12)NC(=O)[C@H]1CCCN1C(=O)[C@@H](Cc1ccccc1)NC(=O)[C@H](NC(=O)[C@@H](Cc1c[nH]c2ccccc12)NC(=O)[C@@H](CS)NC(=O)c1ccc(NNC(=O)CN2CCN(CC(=O)O)CCN(CC(=O)O)CCN(CC(=O)O)CC2)nc1)[C@H](C)CC)C(=O)N[C@H](CCC(N)=O)C(=O)N[C@H](CC(C)C)C(=O)O` [[^177Lu]Lu–iGRP78, metal not drawn] ({DOTA}-[X1][dC][dW][dI][dF][dP][dW][dI][dQ][dL]-OH): in data set [1], the Cytosolic internalization entry is given as “highest internalization values” and the Nuclear internalization result is listed as “highest internalization values”. Besides, the “Uptake in cellular cytosol and nucleus” value in data set [2] is “low uptake”. Moreover, the “Radiochemical purity, unchanged” value in data set [4] is recorded as “exceeding 97%”. This molecule also displayed a Dead cells with LNCaP cells of 68.93 ± 5.05%.
